In US11253524B2 (Gilead Sciences, Inc., priority 2018, dated 2022):
Marks after values point to notes of the source that are not given here.

How the values were obtained:
[1] = Phase 1 mass-balance study, [14C]bictegravir metabolite profiling in plasma, urine and feces; settings: for % of administered dose in feces: feces pooled per individual subject, 0 to 144 hours postdose, average of 8 subjects; for % of plasma AUC0-72 h of total radioactivity: human plasma, AUC pool 0-72 h, single oral 100 mg [14C]bictegravir; for % of administered dose in urine: human urine pooled 0 to 96 hours postdose
Excerpt: A total of eight patents were enrolled. Subjects were healthy male nonsmokers, 18 to 45 years of age, inclusive, with a body mass index (BMI) from 19 to 30 kg/m2, inclusive, normal 12-lead electrocardiogram (ECG), normal renal function, no significant medical history, and in good general health, as determined by the investigator at the screening evaluation performed no more than 28 days prior to the scheduled first dose.
Treatment involved a single, oral dose followed by a 6- to 21-day sample collection period, the exact duration of which was based on recovery of radiolabeled drug. […] Following administration, the dosing container was rinsed twice, each rinse with approximately 50 mL of cranberry juice, and administered to the subject. The entire study drug solution and cranberry juice rinse (total of approximately 140 mL) was taken within a 10 minute window. […]
Urine: Metabolite profiling and quantitation in urine was performed with samples pooled for individual subjects within the period of 0 to 96 hours postdose.
Feces: Metabolite profiling and quantitation in feces was performed with the feces samples pooled for individual subjects.
Metabolite Quantitation: LC-Radio-chromatograms of the pooled plasma, urine, and feces samples were obtained.

[2] = molecular target: T1, multidrug-resistance protein 2 (MRP2; ABCC2) (Homo sapiens, UniProt Q92887); experiment: in vitro; assay type: biochemical
T1 construct: host or cells: membrane vesicle preparations
Experimental: (§1) Cells and experimental conditions for the transporter inhibition assays are summarized below in Table 7. […] M15, M20, and M23 were prepared according to the procedures described herein. All other materials were purchased by SOLVO Biotechnology and experiments were conducted according to SOLVO Standard Operating Procedures (SOPs) of its certified ISO 9001:2008 system. Lot and product information was recorded by SOLVO Biotechnology.
(§2) Test compounds and positive control was incubated with membrane vesicle preparations (total protein: 50 μg/well) and the model substrate in the absence or presence of ATP. Reaction mixtures were preincubated for 15 minutes at 37° C. Reactions were started by the addition of 25 μL of 12 mM MgATP or AMP assay buffer (for background controls) preincubated separately. Reactions were stopped after 5 min by the addition of 200 μL of ice-cold washing buffer and immediate filtration via glass fiber filters mounted to a 96-well plate (filter plate). The filters were washed, dried and the amount of substrate inside the filtered vesicles determined by liquid scintillation. A positive control inhibitor was tested in parallel. Control membranes lacking transporter expression were used as negative control. All assays were performed in duplicate.
(§3) Fractional transport activities were calculated from the following equation: Activity %=(A−B)/(C−D)×100 where A is translocated amount of substrate in the presence of TA and ATP, B is translocated amount of substrate in the presence of TA, C is translocated amount of substrate in the presence of solvent and ATP, and D is translocated amount of substrate in the presence of solvent. IC50 Determination in Transporter Assays
(§4) IC50 is defined as the test article concentration needed to inhibit the maximal transporter specific transport by 50%. IC50 values were calculated using non-linear fitting of % inhibition versus concentration to a sigmoidal curve with a variable Hill Coefficient using GraphPad Prism 5 (GraphPad Software Inc., San Diego, Calif.). If the % inhibition was less than 50% at the highest concentration tested, the IC50 was not determined. No inhibition observed (NIO) is reported for relative inhibition results <20% and no concentration dependent transport observed up to the highest concentration tested.

[3] = molecular target: T2, human hepatic microsomal UGT1A1 (Homo sapiens, UniProt P22309); experiment: biochemical; settings: for Stimulation of enzyme activity, peak increase: at 200 μM
T2 sequence (P22309 26-533): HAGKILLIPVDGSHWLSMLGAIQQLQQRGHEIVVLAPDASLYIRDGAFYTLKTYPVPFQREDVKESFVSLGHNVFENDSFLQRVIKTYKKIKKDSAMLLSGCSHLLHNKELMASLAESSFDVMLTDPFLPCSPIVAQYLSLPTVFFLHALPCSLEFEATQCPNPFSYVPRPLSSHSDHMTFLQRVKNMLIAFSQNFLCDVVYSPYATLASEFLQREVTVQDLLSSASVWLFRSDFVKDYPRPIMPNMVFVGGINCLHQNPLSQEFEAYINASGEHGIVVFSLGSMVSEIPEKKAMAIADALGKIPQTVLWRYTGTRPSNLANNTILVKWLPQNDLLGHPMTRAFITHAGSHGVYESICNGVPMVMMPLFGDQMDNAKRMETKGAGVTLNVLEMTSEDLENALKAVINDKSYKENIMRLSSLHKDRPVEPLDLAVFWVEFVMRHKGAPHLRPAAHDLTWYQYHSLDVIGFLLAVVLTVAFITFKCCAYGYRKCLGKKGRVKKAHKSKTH
Experimental: The conditions for the assay were determined to be linear with respect to microsomal protein concentration and incubation time. […] Microsomal UGT1A1 activity was determined in duplicate. […] Diluted microsomal fraction was incubated on ice for 15 minutes with alamethicin, magnesium chloride and SACLAC. Substrate and inhibitor were then added and the mixture warmed to 37° C. for 0.5 minute. The reaction was initiated by the addition of UDP glucuronic acid in potassium phosphate buffer. The incubation continued at 37° C. with shaking and no light exposure for 2 minutes. Reactions were terminated by addition of one volume of 200 mM ascorbic acid in methanol, containing 200 nM 2-(N-(2-ethylphenyl)methylsulfonamido)-N-(2-(pyridin-2-ylthio)ethyl)acetamide as the internal standard.
A Shimadzu UFLC XR UPLC system was used for analysis. The column used was a Thermo-Hypersil Gold 1.9 μm C18 column (30×2.1 mm) held at 60° C. Mobile phases were; A: water containing 0.1% (v/v) formic acid, and B: acetonitrile containing 0.1% (v/v) formic acid, pumped at 0.7 mL/minute. Elution was achieved by a series of linear gradients over 2 minutes. The mass spectrometer was an Applied Biosciences SCIEX QTRAP 5500 triple quadrupole mass spectrometer with an electrospray interface operating in positive ion mode. Quantification was by metabolite/internal standard peak area ratio (PAR).
MS/MS transitions ([M+H]+) of m/z 761.2/475.1 and 937.2/475.1 for the monoglucuronide and diglucuronide, respectively. The PAR values for the two monoglucuronides were combined for quantification.
Reaction velocities were calculated from the rates of formation of the metabolites and were compared to those seen with the vehicle control (100% activity). IC50 values were calculated by non-linear regression using GraphPad Prism 7.03 and a sigmoidal three parameter inhibition model. […] During the testing period the inhibitory potency of atazanavir was determined four times, with each concentration tested in duplicate in each determination. The data from all runs were pooled and a global fit performed to determine the lower plateau value. […] For atazanavir, the IC50 values from the four duplicate runs were combined to generate a summary geometric mean and multiplicative standard deviation for this positive control inhibitor.

[4] = molecular target: T3, MRP2 (ABCC2) (Homo sapiens, UniProt Q92887); experiment: in vitro; assay type: biochemical; settings: human
T3 construct: host or cells: membrane vesicle preparations
Experimental: as §1, §2, §3, §4

T1 sequence (Q92887 whole entry): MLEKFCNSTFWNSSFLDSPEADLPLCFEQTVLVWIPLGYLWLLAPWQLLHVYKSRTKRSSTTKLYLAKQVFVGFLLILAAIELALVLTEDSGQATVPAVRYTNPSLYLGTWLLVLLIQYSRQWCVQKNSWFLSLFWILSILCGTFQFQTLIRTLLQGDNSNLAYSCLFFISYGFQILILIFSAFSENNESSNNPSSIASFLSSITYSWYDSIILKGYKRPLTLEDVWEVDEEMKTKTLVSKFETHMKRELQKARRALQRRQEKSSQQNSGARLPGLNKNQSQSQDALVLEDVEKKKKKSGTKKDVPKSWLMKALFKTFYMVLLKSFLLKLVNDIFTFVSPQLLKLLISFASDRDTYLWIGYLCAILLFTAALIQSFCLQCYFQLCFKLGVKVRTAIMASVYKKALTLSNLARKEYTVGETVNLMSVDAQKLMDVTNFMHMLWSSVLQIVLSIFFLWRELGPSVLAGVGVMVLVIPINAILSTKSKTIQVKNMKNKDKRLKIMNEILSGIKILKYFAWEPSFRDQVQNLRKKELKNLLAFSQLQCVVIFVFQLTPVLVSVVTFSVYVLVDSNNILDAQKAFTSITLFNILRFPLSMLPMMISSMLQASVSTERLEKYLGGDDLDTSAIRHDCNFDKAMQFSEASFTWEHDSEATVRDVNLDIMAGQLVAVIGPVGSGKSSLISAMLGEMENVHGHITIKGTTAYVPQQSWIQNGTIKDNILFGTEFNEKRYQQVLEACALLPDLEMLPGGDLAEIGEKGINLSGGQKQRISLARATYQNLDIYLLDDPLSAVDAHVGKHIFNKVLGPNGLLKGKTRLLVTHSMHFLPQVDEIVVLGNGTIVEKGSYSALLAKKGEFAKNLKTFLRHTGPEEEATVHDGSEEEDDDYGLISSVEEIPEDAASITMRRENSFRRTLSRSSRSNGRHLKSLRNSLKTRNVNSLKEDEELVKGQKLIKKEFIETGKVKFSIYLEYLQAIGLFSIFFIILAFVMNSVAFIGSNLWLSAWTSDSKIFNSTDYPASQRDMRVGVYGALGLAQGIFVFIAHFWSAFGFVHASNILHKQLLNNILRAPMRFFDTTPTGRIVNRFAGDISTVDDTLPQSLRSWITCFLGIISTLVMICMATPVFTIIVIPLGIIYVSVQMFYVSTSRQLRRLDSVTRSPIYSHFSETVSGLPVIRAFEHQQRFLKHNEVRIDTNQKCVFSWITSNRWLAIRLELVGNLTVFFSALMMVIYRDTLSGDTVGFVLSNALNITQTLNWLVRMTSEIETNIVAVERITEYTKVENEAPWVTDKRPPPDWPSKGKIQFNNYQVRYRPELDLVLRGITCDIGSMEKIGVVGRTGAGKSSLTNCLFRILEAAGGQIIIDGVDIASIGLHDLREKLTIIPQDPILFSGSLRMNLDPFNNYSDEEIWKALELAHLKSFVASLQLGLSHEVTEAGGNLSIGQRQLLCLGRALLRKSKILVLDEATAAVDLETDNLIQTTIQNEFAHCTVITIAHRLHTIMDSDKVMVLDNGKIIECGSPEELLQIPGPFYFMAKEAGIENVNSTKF
T3 sequence (Q92887 whole entry): as above

SMILES | % of administered dose in feces [1] [%] | % of plasma AUC0-72 h of total radioactivity [1] | % of plasma AUC0-72 h of total radioactivity ([1]; listed as [^14C]Bictegravir) [%] | % of plasma AUC0-72 h of total radioactivity ([1]; listed as [^14C]bictegravir) | % of administered dose in urine [1] [%] | IC50 (μM) [2] | IC50 [3] [µM] | Stimulation of enzyme activity, peak increase [3] [%] | inhibition at 5 min, 300 µM [4] [%] | IC50 [2] [µM] | inhibition at 5 min, 100 µM [4] [%]
O=C(NCc1c(F)cc(F)cc1F)c1cn2c(c(O)c1=O)C(=O)N1[C@H]3CC[C@H](C3)O[C@@H]1C2 [BIC, bictegravir, reference compound] | 30.6 | 67.9% | 67.9 | approximately 67.9% | 3.6 | NIO | > 300 | 76 | – | – | –
O=C(NCc1c(F)cc(F)cc1F)c1cn2c(c(O[C@@H]3O[C@H](C(=O)O)[C@@H](O)[C@H](O)[C@H]3O)c1=O)C(=O)N1[C@H]3CC[C@H](C3)O[C@@H]1C2 [Metabolite M15] | – | 8.6% | – | – | 21.4 | – | > 300 | 21 | 53 | 256 | –
O=C(NCc1c(F)cc(F)c(OS(=O)(=O)O)c1F)c1cn2c(c(O)c1=O)C(=O)N1C(C2)O[C@@H]2CC[C@H]1C2 (some centres unmarked) [Metabolite M20] | – | 20.1% | – | – | – | – | 153 | – | 98 | 45 | –
O=C(NCc1c(F)cc(F)c(O)c1F)c1cn2c(c(O)c1=O)C(=O)N1[C@H]3CC[C@H](C3)O[C@@H]1C2 [Metabolite M23] | 3.6 | 0.2^c % | – | – | – | – | 256 | – | – | > 100 | 43
